From patent US20090226392A1, “Phosphate-Binding Polymers for Oral Administration” (priority 1993, published 2009)

Experiment: Phosphate binding test: polymer stirred in phosphate containing solution at pH 7 for 3 hours
Method: Candidate polymers were tested by stirring them in a phosphate containing solution at pH 7 for 3 hours. The solution was designed to mimic the conditions present in the small intestine.
The pH was adjusted to pH 7, once at the start of the test and again at the end of the test, using either aqueous NaOH or HCl. After 3 hours the polymer was filtered off and the residual phosphate concentration in the test solution was determined spectrophotometrically. The difference between the initial phosphate concentration and the final concentration was used to determine the amount of phosphate bound to the polymer.

SMILES	Phosphate Bound (pH 7) [meq/g]	Phosphate Bound (Table 2, other materials, pH 7, 3 hours, residual solution phosphate ~5 mM) [meq/g]
[Ca+2].[Cl-].[Cl-] [Calcium Chloride]	4.0	–
CC(O)C(=O)[O-].CC(O)C(=O)[O-].[Ca+2] (centres unmarked) [Calcium Lactate]	–	2.4
